Like-named read-outs stand apart in the source and are kept apart here.
Experiment: Noncompartmental pharmacokinetic parameters (Cmax, Tmax, AUC, Racc) in QD and BID cohorts of Form B
Assay type: in vivo, human
Settings: human, plasma, oral, Compound III
Description: Analysis of plasma concentration versus time data for calculation of standard pharmacokinetic (PK) parameters following oral administration was conducted using Phoenix WinNonlin version 6.3 using actual blood sampling times.
The following pharmacokinetic parameters were calculated from the concentration versus time data obtained in Example 1 for each of the above QD (200 mg, 300 mg, 400 mg, 500 mg, or 650 mg dosed) and BID (100 mg, 150 mg, or 200 mg doses) Form B of Compound II dosage cohorts: • Cmax—the observed peak plasma concentration determined from the plasma concentration versus time data obtained on Day 1 and Day 29, as applicable; • Tmax—the time to reach the observed peak plasma concentration from the plasma concentration versus time data obtained on Day 1 and Day 29, as applicable; • AUC—area under the plasma concentration versus time curve during a dosing interval on Day 1 and Day 29, as applicable; and • Racc—accumulation ratio calculated as AUCDay 29/AUCDay 1.

AUC(0-t) (150 mg, 150 mg BID of Form B, Cohort 7, Day 1, read-out: AUClast (Median)): 16.3 ng·h/mL
Cmax (150 mg, 150 mg BID of Form B, Cohort 7, Day 1, read-out: Cmax (Mean)): 3.2 ng/mL
Cmax (150 mg, 150 mg BID of Form B, Cohort 7, Day 1, read-out: Cmax (Median)): 3 ng/mL
Tmax (150 mg, 150 mg BID of Form B, Cohort 7, Day 1, read-out: Tmax (Mean)): 3 h
Tmax (150 mg, 150 mg BID of Form B, Cohort 7, Day 1, read-out: Tmax (Median)): 3 h
AUC(0-t) (150 mg, 150 mg BID of Form B, Cohort 7, Day 29, read-out: AUClast (Mean)): 47.9 ng·h/mL
AUC(0-t) (150 mg, 150 mg BID of Form B, Cohort 7, Day 29, read-out: AUClast (Median)): 23.3 ng·h/mL
Cmax (150 mg, 150 mg BID of Form B, Cohort 7, Day 29, read-out: Cmax (Mean)): 6.23 ng/mL
Cmax (150 mg, 150 mg BID of Form B, Cohort 7, Day 29, read-out: Cmax (Median)): 3.55 ng/mL
Tmax (150 mg, 150 mg BID of Form B, Cohort 7, Day 29, read-out: Tmax (Mean)): 3 h
Tmax (150 mg, 150 mg BID of Form B, Cohort 7, Day 29, read-out: Tmax (Median)): 3 h
AUC(0-t) (200 mg, 200 mg BID of Form B, Cohort 8, Day 1, read-out: AUClast (Mean)): 17.2 ng·h/mL
AUC(0-t) (200 mg, 200 mg BID of Form B, Cohort 8, Day 1, read-out: AUClast (Median)): 18.6 ng·h/mL
Cmax (200 mg, 200 mg BID of Form B, Cohort 8, Day 1, read-out: Cmax (Mean)): 2.87 ng/mL
Cmax (200 mg, 200 mg BID of Form B, Cohort 8, Day 1, read-out: Cmax (Median)): 3 ng/mL
Tmax (200 mg, 200 mg BID of Form B, Cohort 8, Day 1, read-out: Tmax (Mean)): 4.75 h
Tmax (200 mg, 200 mg BID of Form B, Cohort 8, Day 1, read-out: Tmax (Median)): 5 h
AUC(0-t) (200 mg, 200 mg BID of Form B, Cohort 8, Day 29, read-out: AUClast (Mean)): 22 ng·h/mL
AUC(0-t) (200 mg, 200 mg BID of Form B, Cohort 8, Day 29, read-out: AUClast (Median)): 20.1 ng·h/mL
Cmax (200 mg, 200 mg BID of Form B, Cohort 8, Day 29, read-out: Cmax (Mean)): 2.79 ng/mL
Cmax (200 mg, 200 mg BID of Form B, Cohort 8, Day 29, read-out: Cmax (Median)): 2.77 ng/mL
Tmax (200 mg, 200 mg BID of Form B, Cohort 8, Day 29, read-out: Tmax (Mean)): 6.33 h
Tmax (200 mg, 200 mg BID of Form B, Cohort 8, Day 29, read-out: Tmax (Median)): 4 h
AUC(0-t) (200 mg, 200 mg QD of Form B, Cohort 1, Day 1, read-out: AUClast (Mean)): 23.7 ng·h/mL
AUC(0-t) (200 mg, 200 mg QD of Form B, Cohort 1, Day 1, read-out: AUClast (Median)): 21.3 ng·h/mL
Cmax (200 mg, 200 mg QD of Form B, Cohort 1, Day 1, read-out: Cmax (Mean)): 4.18 ng/mL
Cmax (200 mg, 200 mg QD of Form B, Cohort 1, Day 1, read-out: Cmax (Median)): 3.88 ng/mL
Tmax (200 mg, 200 mg QD of Form B, Cohort 1, Day 1, read-out: Tmax (Mean)): 4.17 h
Tmax (200 mg, 200 mg QD of Form B, Cohort 1, Day 1, read-out: Tmax (Median)): 4 h
AUC(0-t) (200 mg, 200 mg QD of Form B, Cohort 1, Day 29, read-out: AUClast (Mean)): 27.9 ng·h/mL
AUC(0-t) (200 mg, 200 mg QD of Form B, Cohort 1, Day 29, read-out: AUClast (Median)): 25.4 ng·h/mL
Cmax (200 mg, 200 mg QD of Form B, Cohort 1, Day 29, read-out: Cmax (Mean)): 3.14 ng/mL
Cmax (200 mg, 200 mg QD of Form B, Cohort 1, Day 29, read-out: Cmax (Median)): 2.52 ng/mL
Tmax (200 mg, 200 mg QD of Form B, Cohort 1, Day 29, read-out: Tmax (Mean)): 4.2 h
Tmax (200 mg, 200 mg QD of Form B, Cohort 1, Day 29, read-out: Tmax (Median)): 4 h
AUC(0-t) (300 mg, 300 mg QD of Form B, Cohort 2, Day 1, read-out: AUClast (Mean)): 43.1 ng·h/mL
AUC(0-t) (300 mg, 300 mg QD of Form B, Cohort 2, Day 1, read-out: AUClast (Median)): 53.1 ng·h/mL
Cmax (300 mg, 300 mg QD of Form B, Cohort 2, Day 1, read-out: Cmax (Mean)): 4.81 ng/mL
Cmax (300 mg, 300 mg QD of Form B, Cohort 2, Day 1, read-out: Cmax (Median)): 6.21 ng/mL
Tmax (300 mg, 300 mg QD of Form B, Cohort 2, Day 1, read-out: Tmax (Mean)): 3.67 h
Tmax (300 mg, 300 mg QD of Form B, Cohort 2, Day 1, read-out: Tmax (Median)): 4 h
AUC(0-t) (300 mg, 300 mg QD of Form B, Cohort 2, Day 29, read-out: AUClast (Mean)): 66.2 ng·h/mL
AUC(0-t) (300 mg, 300 mg QD of Form B, Cohort 2, Day 29, read-out: AUClast (Median)): 56.1 ng·h/mL
Cmax (300 mg, 300 mg QD of Form B, Cohort 2, Day 29, read-out: Cmax (Mean)): 5.44 ng/mL
Cmax (300 mg, 300 mg QD of Form B, Cohort 2, Day 29, read-out: Cmax (Median)): 5.56 ng/mL
Tmax (300 mg, 300 mg QD of Form B, Cohort 2, Day 29, read-out: Tmax (Mean)): 5.33 h
Tmax (300 mg, 300 mg QD of Form B, Cohort 2, Day 29, read-out: Tmax (Median)): 4 h
AUC(0-t) (400 mg, 400 mg QD of Form B, Cohort 3, Day 1, read-out: AUClast (Mean)): 25.6 ng·h/mL
AUC(0-t) (400 mg, 400 mg QD of Form B, Cohort 3, Day 1, read-out: AUClast (Median)): 29.2 ng·h/mL
Cmax (400 mg, 400 mg QD of Form B, Cohort 3, Day 1, read-out: Cmax (Mean)): 4.85 ng/mL
Cmax (400 mg, 400 mg QD of Form B, Cohort 3, Day 1, read-out: Cmax (Median)): 4.66 ng/mL
Tmax (400 mg, 400 mg QD of Form B, Cohort 3, Day 1, read-out: Tmax (Mean)): 4.33 h
Tmax (400 mg, 400 mg QD of Form B, Cohort 3, Day 1, read-out: Tmax (Median)): 6 h
AUC(0-t) (400 mg, 400 mg QD of Form B, Cohort 3, Day 29, read-out: AUClast (Mean)): 42.6 ng·h/mL
AUC(0-t) (400 mg, 400 mg QD of Form B, Cohort 3, Day 29, read-out: AUClast (Median)): 40.9 ng·h/mL
Cmax (400 mg, 400 mg QD of Form B, Cohort 3, Day 29, read-out: Cmax (Mean)): 3.5 ng/mL
Cmax (400 mg, 400 mg QD of Form B, Cohort 3, Day 29, read-out: Cmax (Median)): 3.4 ng/mL
Tmax (400 mg, 400 mg QD of Form B, Cohort 3, Day 29, read-out: Tmax (Mean)): 5.33 h
Tmax (400 mg, 400 mg QD of Form B, Cohort 3, Day 29, read-out: Tmax (Median)): 6 h
AUC(0-t) (500 mg, 500 mg QD of Form B, Cohort 4, Day 1, read-out: AUClast (Mean)): 77.7 ng·h/mL
AUC(0-t) (500 mg, 500 mg QD of Form B, Cohort 4, Day 1, read-out: AUClast (Median)): 79 ng·h/mL
Cmax (500 mg, 500 mg QD of Form B, Cohort 4, Day 1, read-out: Cmax (Mean)): 7.98 ng/mL
Cmax (500 mg, 500 mg QD of Form B, Cohort 4, Day 1, read-out: Cmax (Median)): 8.03 ng/mL
Tmax (500 mg, 500 mg QD of Form B, Cohort 4, Day 1, read-out: Tmax (Mean)): 5.5 h
Tmax (500 mg, 500 mg QD of Form B, Cohort 4, Day 1, read-out: Tmax (Median)): 6 h
AUC(0-t) (500 mg, 500 mg QD of Form B, Cohort 4, Day 29, read-out: AUClast (Mean)): 66.4 ng·h/mL
AUC(0-t) (500 mg, 500 mg QD of Form B, Cohort 4, Day 29, read-out: AUClast (Median)): 69.6 ng·h/mL
Cmax (500 mg, 500 mg QD of Form B, Cohort 4, Day 29, read-out: Cmax (Mean)): 5.98 ng/mL
Cmax (500 mg, 500 mg QD of Form B, Cohort 4, Day 29, read-out: Cmax (Median)): 5.37 ng/mL
Tmax (500 mg, 500 mg QD of Form B, Cohort 4, Day 29, read-out: Tmax (Mean)): 3.67 h
Tmax (500 mg, 500 mg QD of Form B, Cohort 4, Day 29, read-out: Tmax (Median)): 4 h
AUC(0-t) (650 mg, 650 mg QD of Form B, Cohort 5, Day 1, read-out: AUClast (Mean)): 123 ng·h/mL
AUC(0-t) (650 mg, 650 mg QD of Form B, Cohort 5, Day 1, read-out: AUClast (Median)): 125 ng·h/mL
Cmax (650 mg, 650 mg QD of Form B, Cohort 5, Day 1, read-out: Cmax (Mean)): 10.9 ng/mL
Cmax (650 mg, 650 mg QD of Form B, Cohort 5, Day 1, read-out: Cmax (Median)): 10.4 ng/mL
Tmax (650 mg, 650 mg QD of Form B, Cohort 5, Day 1, read-out: Tmax (Mean)): 6.67 h
Tmax (650 mg, 650 mg QD of Form B, Cohort 5, Day 1, read-out: Tmax (Median)): 7 h
AUC(0-t) (650 mg, 650 mg QD of Form B, Cohort 5, Day 29, read-out: AUClast (Mean)): 125 ng·h/mL
AUC(0-t) (650 mg, 650 mg QD of Form B, Cohort 5, Day 29, read-out: AUClast (Median)): 125 ng·h/mL
Cmax (650 mg, 650 mg QD of Form B, Cohort 5, Day 29, read-out: Cmax (Mean)): 8.7 ng/mL
Cmax (650 mg, 650 mg QD of Form B, Cohort 5, Day 29, read-out: Cmax (Median)): 8.7 ng/mL
Tmax (650 mg, 650 mg QD of Form B, Cohort 5, Day 29, read-out: Tmax (Mean)): 7 h
Tmax (650 mg, 650 mg QD of Form B, Cohort 5, Day 29, read-out: Tmax (Median)): 7 h
Compound: O=C1NCC2(CCCCC2)n2c1cc1cnc(Nc3ccc(N4CCNCC4)cn3)nc12 [Compound III, 2′-((5-(piperazin-1-yl)pyridin-2-yl)amino)-7′,8′-dihydro-6′H-spiro[cyclohexane-1,9′-pyrazino[1′,2′:1,5]pyrrolo[2,3-d]pyrimidin]-6′-one]
